Laboratory results as given in article PMC4560900, “High-throughput screening against thioredoxin glutathione reductase identifies novel inhibitors with potential therapeutic value for schistosomiasis” (Infectious Diseases of Poverty, 2015).

How the values were obtained:
worms = tested on: worms; design: method as in PMID 7016122; conditions: previous studies; cited from earlier work
[1] = biological target: T1, Thioredoxin glutathione reductase from S. mansoni (SmTGR) (Schistosoma mansoni, UniProt Q962Y6); experiment: Endpoint SmTGR fluorescence (ThioGlo) assay; assay type: biochemical
T1 construct: made in house
T1 sequence (Q962Y6 1-598): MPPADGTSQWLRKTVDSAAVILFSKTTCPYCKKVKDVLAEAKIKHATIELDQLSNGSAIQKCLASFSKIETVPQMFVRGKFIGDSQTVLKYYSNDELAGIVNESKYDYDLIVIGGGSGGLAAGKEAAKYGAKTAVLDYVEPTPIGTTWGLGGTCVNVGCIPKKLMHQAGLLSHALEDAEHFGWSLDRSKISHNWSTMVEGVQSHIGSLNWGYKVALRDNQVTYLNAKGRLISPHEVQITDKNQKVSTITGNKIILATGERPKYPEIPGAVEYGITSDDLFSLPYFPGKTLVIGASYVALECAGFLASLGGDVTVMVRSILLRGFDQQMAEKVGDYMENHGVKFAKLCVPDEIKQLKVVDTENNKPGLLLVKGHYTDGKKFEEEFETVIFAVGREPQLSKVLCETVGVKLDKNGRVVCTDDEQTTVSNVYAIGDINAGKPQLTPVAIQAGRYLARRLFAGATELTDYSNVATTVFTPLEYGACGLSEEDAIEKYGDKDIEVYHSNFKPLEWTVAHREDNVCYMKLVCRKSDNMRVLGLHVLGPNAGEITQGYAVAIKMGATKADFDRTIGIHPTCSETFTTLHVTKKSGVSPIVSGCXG
Experimental: SmTGR protein (1.58 μg/ml) was loaded into each well of black 384-well plates (PerkinElmer, Boston, MA, USA) containing 19 μl of assay buffer I (90 mM Tris-HCl, 10 mM EDTA, pH 7.5, 100 μM NADPH, and 0.48 mg/ml BSA), followed by an addition of 1 μl positive control or test compounds. The plates were sealed and incubated for 50 min at room temperature. […] Following a 1 h incubation, the product was reacted with 30 μl ThioGlo® 1 reagent for 20–30 min, and the fluorescence signal was monitored at an excitation wavelength of 380 nm and an emission wavelength of 515 nm on the EnVision plate reader (PerkinElmer).
An HTS effort was carried out against the compound library described above. […]
Data were analyzed using GraphPad Prism® software (GraphPad, San Diego, CA, USA). […]
Recombinant SmTGR was expressed and purified as previously described. An earlier assay of the coupled activities of SmTGR and peroxiredoxin-2 [13] was adapted to study the activity of SmTGR alone, using the following principle: SmTGR converts NADPH and GSSG to NADP^+ and reduced glutathione (GSH), and GSH production can be detected with ThioGlo®, a maleimide derivative of the naphthopyranone fluorophore which fluoresces upon reacting with free thiol groups such as those present in GSH. […] After ten additional minutes, samples were excited at […] and read for fluorescence at 515 nM.

SmTGR = tested on: SmTGR; design: method as in PMID 17579510; conditions: read-out: IC50 documented in the literature; cited from earlier work

Q: With `O=C(C1CCCCC1)N1CC(=O)N2CCc3ccccc3C2C1` (stereo not shown) [PZQ, praziquantel] as the compound, how does the Worm-killing activity concentration (worms) read?
A: 0.3 to 1 µM

Q: Which results are given for `O=C1C=CC(=O)c2c(O)ccc(O)c21` [naphthazarin, Naphthazarin]?
A: IC50 [1]: 1.42 ± 0.08 µM; inhibition at 30 µM ([1]; read-out: Inhibition of SmTGR): 100%; IC50 (SmTGR): 10 µM
